Assay: gradient 5% acetonitrile 3 min, to 50% in 2 min, to 85% in 15 min, held 3 min, 100 µL/min
Conditions: column: Zorbax Extend-C18 2.1 x 50 mm; eluents: water / acetonitrile, 0.1% formic acid
Summary of the method: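 Over 3 months, pure standards in mixtures of ~100 molecules were run by HPLC coupled to a quadrupole time-of-flight mass spectrometer in positive and negative ionization mode. The column was a Zorbax Extend-C18 (2.1 × 50 mm, 1.8 μm) at 100 μL/min, eluted with water and acetonitrile each holding 0.1% formic acid, with 40 μL dead and 900 μL dwell volumes. Retention time was determined from adduct peaks chosen by software and checked manually.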

Going from `CCn1c(C(=O)NCCCN2CCCC(C)C2)cc2c(-c3cccs3)nn(-c3ccccc3)c21` (stereo not given) to `CCS(=O)(=O)N1CCc2c(c(CN(C(=O)c3ccc(F)cc3)c3ccccc3)nn2C)C1`, the RP-LC retention time rises from 802 s to 804 s.

Going from `CC1(C)CC(=O)C2=C(C1)N(CC1CCCO1)C(=O)C2(NC(=O)c1cccnc1)C(F)(F)F` (stereo not given) to `O=C(Cn1ncc2c(c1=O)N(C1CC1)C(=O)CS2)NCc1ccco1`, the RP-LC retention time falls from 719 s to 648 s.

Compared with `Cc1ccc(CNC(=O)C2(C)CN(S(C)(=O)=O)CC(=O)N2c2ccc(Cl)cc2C)cc1` (stereo not given), `COc1cccc(CNC(=O)NCCC2CCN(S(=O)(=O)c3ccc(C)cc3)CC2)c1` is lower in RP-LC retention time: 919 s for the first, 873 s for the second.

Compared with `Cc1ccc(-c2nnc(-c3ccc(Cl)c(S(=O)(=O)N4CCCCC4)c3)o2)cc1`, `CC(C)n1cc(S(=O)(=O)N2CCN(c3ccccc3Cl)CC2)c2cccnc21` is lower in RP-LC retention time: 1250 s for the first, 761 s for the second.

Going from `CCc1cc(C(=O)N2CCN(C3CCN(C)CC3)CC2)nc2cc(-c3ccccn3)nn12` to `CCC1CN2C=NC(N3CCN(C(=O)c4nn(C)c5ccccc45)CC3)=CC2=N1` (stereo not given), the RP-LC retention time rises from 562 s to 636 s.

Going from `Cc1ccsc1C(=O)Nc1ccc(N2CCN(C3CCCCC3)C2=O)nc1` to `O=C(NC1CCCCC1)c1ccc(-n2cccn2)nc1`, the RP-LC retention time falls from 863 s to 815 s.

Going from `CCC(NC(=O)C1CCCN(c2cnc3nccnc3c2)C1)c1ccc(OC)cc1` (stereo not given) to `COc1ccc(-n2nc3c(N4CCCC(C(=O)NC5CCCCC5)C4)nnc(C)c3c2C)cc1` (stereo not given), the RP-LC retention time falls from 735 s to 732 s.

First: Cc1ccccc1N1CCN(CCc2nnc3n2CCCC3)CC1
Second: O=C(Cn1nc2n(c1=O)CCCCC2)N1CCN(c2ccc(F)cc2)CC1
The RP-LC retention time of the first is lower: 573 s for the first, 701 s for the second.

Going from `Cc1nn(-c2nc3ccccc3[nH]2)c2c1C(=O)CC(c1ccc(F)cc1)C2` (stereo not given) to `CCc1ccc(Nc2nc(C(=O)NC3CCCCC3)nc3ccccc23)cc1`, the RP-LC retention time falls from 1000 s to 995 s.

Going from `Cc1ccc(C(=O)N2C[C@H]3C[C@H](C2)[C@H]2CCCC(=O)N2C3)s1` to `COc1ccc(C(=O)N2CC(n3cc(COCC4CC4)nn3)C2)cc1`, the RP-LC retention time rises from 646 s to 712 s.

Compared with `CN1C(=O)NC2(CCN(C(=O)c3cccs3)CC2)C1=O`, `O=C1CCN(C(=O)C2CCN(C(=O)c3cccs3)CC2)CCCCCCN1` is higher in RP-LC retention time: 561 s for the first, 639 s for the second.

First: CC(C)c1ccc(Nc2c(-c3ccc(Cl)cc3)nc3cnccn23)cc1
Second: CC(=O)c1ccc(NC(=O)Cn2nc3c4cc(-c5ccc(C(C)C)cc5)nn4ccn3c2=O)cc1
The RP-LC retention time of the first is higher: 1190 s for the first, 1020 s for the second.

First: O=C(NC1CCCCC1)C1CCN(C(=O)c2cccn2-c2cccnc2)CC1
Second: CCN(CC)S(=O)(=O)c1ccc2c(c1)CC(C(=O)NC1CCCCC1)N2C(C)=O (stereo not given)
The RP-LC retention time of the first is lower: 673 s for the first, 839 s for the second.

First: CCNC(=O)N1CCCC1c1nc(C2CCOCC2)no1 (stereo not given)
Second: Cc1cnc(C(=O)N2CCCC2c2nc(CCOCC3CCCC3)no2)cn1 (stereo not given)
The RP-LC retention time of the first is lower: 612 s for the first, 903 s for the second.

First: CCCCn1c(N)c(C(=O)OCC)c2nc3ccccc3nc21
Second: CCCCN(C)C(=O)Cn1nc(C)c2sc(-c3ccccc3)nc2c1=O
The RP-LC retention time of the first is lower: 613 s for the first, 865 s for the second.

First: O=C(Nc1nc(-c2cccc3ccccc23)cs1)C1CCCO1 (stereo not given)
Second: O=C(c1ccoc1)N1CCCC(c2ccnc(-c3ccccc3)n2)C1 (stereo not given)
The RP-LC retention time of the first is higher: 978 s for the first, 892 s for the second.

First: Cc1cc(C)c(NC(=O)COc2cc(C)nc(N3CCN(c4ccccc4)CC3)n2)c(C)c1
Second: Cc1ccc(NC(=O)CSc2nccc(N3CCN(c4cc(C)ccc4C)CC3)n2)cc1
The RP-LC retention time of the first is lower: 942 s for the first, 950 s for the second.

Going from `CCn1cc(-c2nc(CC(=O)Nc3ccc(OC)c(Cl)c3)cs2)c2cccnc21` to `Cc1ccc(NC(=O)N2CCN(c3nc4cccnc4n(C)c3=O)CC2)cc1Cl`, the RP-LC retention time rises from 918 s to 951 s.

First: O=C(NC1CCN(c2cc(-c3ccc(Cl)cc3)[nH]n2)C1)c1ccc2cc[nH]c2c1 (stereo not given)
Second: CCOc1ccc(-c2cn3ccn(-c4cc(Cl)ccc4C)c(=O)c3n2)cc1
The RP-LC retention time of the first is lower: 762 s for the first, 934 s for the second.

Compared with `O=C(Nc1nnc(-c2ccsc2)o1)c1ccno1`, `Cc1cc(NC(=O)Cc2cc(-c3ccccc3F)on2)no1` is higher in RP-LC retention time: 617 s for the first, 772 s for the second.

Going from `Cc1noc(-c2ccnc(-n3ncc(C(=O)N4CCCCC4)c3C)c2)n1` to `O=C(c1cn(-c2ccc(-c3nc(C4CC4)no3)cn2)cn1)N1CCCCCC1`, the RP-LC retention time rises from 841 s to 928 s.

Compared with `CCOc1ccccc1NC(=O)N1CCCC(C)(C(=O)NCc2ccccc2C)C1` (stereo not given), `CCOc1coc(C(=O)NCc2ccccc2OC)cc1=O` is lower in RP-LC retention time: 860 s for the first, 644 s for the second.

Going from `CCc1ccccc1NS(=O)(=O)c1cc(-c2[nH]ncc2C(=O)N2CCCC2)oc1C` to `Cc1ccc(F)c(NS(=O)(=O)c2cc(-c3[nH]ncc3C(=O)N3CCOCC3)oc2C)c1`, the RP-LC retention time falls from 749 s to 678 s.

First: COC1CCC12CCN(C(=O)CC(C)C)CC2 (stereo not given)
Second: COCC(=O)NC1CCC12CCN(C(=O)C1CCC1)CC2 (stereo not given)
The RP-LC retention time of the first is higher: 810 s for the first, 661 s for the second.

Compared with `CCc1nnc(-c2nnc(NCCOc3ccccc3OC)c3ccccc23)o1`, `c1ccc2c(-c3nc(C4CC4)no3)nnc(NC3CCCCC3)c2c1` is lower in RP-LC retention time: 790 s for the first, 775 s for the second.

Compared with `Cc1ccc(C)c(NS(=O)(=O)c2cc(-c3cc(C(F)(F)F)on3)sc2C)c1`, `COc1ccc(-c2c(C)noc2NC(C)=O)cc1S(=O)(=O)Nc1ccccc1Cl` is lower in RP-LC retention time: 1320 s for the first, 783 s for the second.

First: CNC(=O)[C@@H]1CN(C(=O)Cn2nc(C(F)(F)F)cc2C)C[C@H]1c1n[nH]c(C)n1
Second: Cc1cc(C(=O)N2CCOCC2)nn1CC(=O)NCCc1c[nH]c2ccccc12
The RP-LC retention time of the first is lower: 618 s for the first, 637 s for the second.

Compared with `COCCNC(=O)C1c2cc(OC)c(OC)cc2C(=O)N(C)C1c1ccc(OC)cc1` (stereo not given), `COc1ccc(CNC(=O)C2(C)Oc3cccnc3N(C(C)C)C2=O)cc1OC` (stereo not given) is higher in RP-LC retention time: 661 s for the first, 836 s for the second.

Compared with `CC1=C(c2ccc(Cl)cc2)S(=O)(=O)N=C1N1CCCN(C(=O)c2cccs2)CC1`, `O=C(C1=CN(c2cccc(F)c2)c2cc(Cl)ccc2S1(=O)=O)N1CCCC1` is lower in RP-LC retention time: 840 s for the first, 838 s for the second.

Compared with `COc1ccc2c(c1)C1(CCN(C(=O)Nc3cccc(C)c3)C1)C(=O)N2` (stereo not given), `CCN(C(=O)C1CCCN1S(=O)(=O)c1cc2c(cc1C)NC(=O)CO2)c1ccc(OC)cc1` (stereo not given) is higher in RP-LC retention time: 730 s for the first, 782 s for the second.

First: O=C(CCSc1ccccc1)Nc1cccc(-c2ccn[nH]2)c1
Second: CN(C)c1cc(C(=O)Nc2ccccc2)c2ccccc2n1
The RP-LC retention time of the first is higher: 769 s for the first, 651 s for the second.

First: Cc1cc(C)cc(C(=O)Nc2cccn3nc(C4CCC4)nc23)c1
Second: Cc1cccc(NC(=O)CN2C(=O)CCc3cc(S(=O)(=O)N4CCCCC4C)ccc32)c1C (stereo not given)
The RP-LC retention time of the first is higher: 1070 s for the first, 930 s for the second.

Going from `COc1ccc(Nc2ccc3c(=O)c(-c4ccccc4OC)c(C)oc3c2)cc1` to `COC(=O)c1cn(NC(=O)c2cc(-c3ccco3)nc3ccccc23)c(=O)c2ccccc12`, the RP-LC retention time falls from 947 s to 858 s.

Compared with `O=C(NCCCN1CCCC1)C1CCc2sc(C(=O)N3CCOCC3)cc2C1` (stereo not given), `COc1ccc(C2C(C(=O)N3CCOCC3)=C(C)NC3=C2C(=O)CCC3)cc1Br` (stereo not given) is higher in RP-LC retention time: 566 s for the first, 653 s for the second.

Going from `CCc1ccc(NC(=O)CSc2cc(N3CCCCC3)ncn2)cc1` to `O=C(NCc1ccnc(N2CCSCC2)c1)Nc1ccccc1Cl`, the RP-LC retention time falls from 974 s to 643 s.

Going from `CCCCOC(=O)c1ccc(NC(=O)c2snnc2CC)cc1` to `CSc1cccc(NC(=O)N(C)Cc2nc3cc(C(=O)N(C)C)ccc3n2C)c1`, the RP-LC retention time falls from 1010 s to 626 s.

Going from `Cc1cc2[nH]c(C(=O)Nc3ccc(F)c(F)c3F)c(CN3CCOCC3)c2s1` to `COc1ccc(S(=O)(=O)N2CCN(c3cc(C)nc(N4CCOCC4)n3)CC2)cc1Cl`, the RP-LC retention time falls from 743 s to 692 s.

Compared with `O=C(CCc1nnc2c3cc(-c4ccccc4)nn3ccn12)N1CCN(C(=O)c2ccco2)CC1`, `CC1Oc2ccccc2N(CC(=O)N2CCN(c3cc(=O)n(C)c(=O)n3C)CC2)C1=O` (stereo not given) is lower in RP-LC retention time: 679 s for the first, 656 s for the second.

Going from `Cc1nc(C)c(C(=O)N2CCC(Cc3noc(C4CC4)n3)C2)s1` (stereo not given) to `Cc1cnc(C(=O)N2CCCC(c3nnc4n3CCN(C(=O)C3CC3)C4)C2)cn1` (stereo not given), the RP-LC retention time falls from 664 s to 584 s.

Compared with `O=c1n(Cc2ccccc2)nc2n1CCN(S(=O)(=O)c1cnc[nH]1)CC2`, `CCc1ccccc1S(=O)(=O)N1CCC(n2cnnc2C(C)C)CC1` is higher in RP-LC retention time: 646 s for the first, 784 s for the second.

Going from `Clc1cccc(CNc2cc(-n3ccnc3)ncn2)c1` to `C=CCn1c(=O)c2ccccc2n(Cc2nc(-c3ccc(Cl)c(F)c3)no2)c1=O`, the RP-LC retention time rises from 589 s to 1120 s.

Compared with `Cc1noc(C2(NC(=O)c3ccc4c(c3)OCO4)CCCCC2)n1`, `Cc1ccc(C2=NC3(CCN(C(=O)c4n[nH]c5c4CCCC5)CC3)ON2)cc1` is lower in RP-LC retention time: 758 s for the first, 736 s for the second.

First: COc1cc(CN2CCCCCC2c2cccs2)ccc1OCC(N)=O (stereo not given)
Second: Cc1ccc(Cn2cc(-c3ccncc3)cc2C(=O)N2CCN(CC(C)C)CC2)cc1
The RP-LC retention time of the first is higher: 611 s for the first, 582 s for the second.

First: CC(C)NC(=O)c1cc(-c2ccc(F)cc2)cn1C
Second: CC(=O)Nc1ccc(NC(=O)C2CC(=O)N(CCc3c[nH]c4ccc(F)cc34)C2)cc1 (stereo not given)
The RP-LC retention time of the first is higher: 926 s for the first, 675 s for the second.

First: O=C(c1n[nH]c2c1CCCC2)N1CCCCC1
Second: O=C(Nc1ccc(C2(C(=O)O)CCC2)cc1)C1CC1
The RP-LC retention time of the first is lower: 695 s for the first, 710 s for the second.

Source: the METLIN SMRT retention time set (Domingo-Almenara et al. 2019)
